Experimental data reported in patent publication US20160074462A1, “Method of Treating HCV” (priority 2014, published 2016).

Settings: human, in vivo
From the text: Food effect on the drug exposure (e.g., AUC) of Compound 1/r, Compound 2 and Compound 3 was not known. Food effect on the drug exposure of these compounds was also not considered predictable.
The increase in exposure was similar regardless of meal type (e.g., high-fat vs. moderate-fat) or calorie content (500-600 kcal vs. 1000 kcal). Therefore, the combination of Compound 1/r, Compound 2 and Compound 3, the combination of Compound 1/r and Compound 3, as well as the combination of Compound 1/r and Compound 2, can be taken with food without regard to the specific fat or calorie content.

increase of exposure (AUC) by food | SMILES
≤ 367% | Cc1cnc(C(=O)N[C@H]2CCCCC/C=C\[C@@H]3C[C@@]3(C(=O)NS(=O)(=O)C3CC3)NC(=O)[C@@H]3C[C@@H](Oc4nc5ccccc5c5ccccc45)CN3C2=O)cn1 [Compound 1, (2R,6S,13aS,14aR,16aS,Z)-N-(cyclopropylsulfonyl)-6-(5-methylpyrazine-2-carboxamido)-5,16-dioxo-2-(phenanthridin-6-yloxy)-1,2,3,5,6,7,8,9,10,11,13a,14,14a,15,16,16a-hexadecahydrocyclopropa[e]pyrrolo[1,2-a][1,4]diazacyclop entadecine-14a-carboxamide]
≤ 53% | COc1c(-c2ccc3cc(NS(C)(=O)=O)ccc3c2)cc(-n2ccc(=O)[nH]c2=O)cc1C(C)(C)C [Compound 2, N-(6-(3-tert-butyl-5-(2,4-dioxo-3,4-dihydropyrimidin-1(2H)-yl)-2-methoxyphenyl)naphthalen-2-yl)methanesulfonamide]
up to 127% | COC(=O)N[C@H](C(=O)N1CCCC1C(=O)Nc1ccc(C2CC[C@@H](c3ccc(NC(=O)[C@@H]4CCCN4C(=O)[C@@H](NC(=O)OC)C(C)C)cc3)N2c2ccc(C(C)(C)C)cc2)cc1)C(C)C (stereo partly shown) [Compound 3]
≤ 63% | CC(C)c1nc(CN(C)C(=O)N[C@H](C(=O)N[C@@H](Cc2ccccc2)C[C@H](O)[C@H](Cc2ccccc2)NC(=O)OCc2cncs2)C(C)C)cs1 [ritonavir, reference compound]
